# PubChem BioAssay AID212 (DTP/NCI, 2004)
# “And” between values parts separate entries of the source, which are not always exact repeats. Equal values may be shown once. Inconclusive results are not listed.
# System: BDF1 mice, colon carcinoma 38 sc, T/C %
# Assay: NCI In Vivo Anticancer Drug Screen. Data for tumor model Colon Carcinoma 38 (subcutaneous) in B6D2F1 (BDF1) mice
# Settings: endpoint: median tumor weight (est.), higher = larger tumour
# Summary of the method: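 T/C readout: treated group (T) measurement over vehicle control group (C) measurement. Endpoint is survival or tumor size in mice bearing a transplanted tumor.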
# [1] = dose: 25.0 mg/kg/injection, schedule: Q07DX002 (ip), vehicle: Klucel (hydroxypropylcellulose) (HPC)
# [2] = dose: 50.0 mg/kg/injection, schedule: Q07DX002 (ip), vehicle: Klucel (hydroxypropylcellulose) (HPC)
# [3] = dose: 12.5 mg/kg/injection, schedule: Q07DX002 (ip), vehicle: saline with Tween-80
# [4] = dose: 25.0 mg/kg/injection, schedule: Q07DX002 (ip), vehicle: saline with Tween-80
# [5] = dose: 50.0 mg/kg/injection, schedule: Q07DX002 (ip), vehicle: saline with Tween-80
smiles,measurement,setting,value
Nc1cc(Cl)c2[nH]cnc2n1,T/C,"dose: 12.5 mg/kg/injection, schedule: Q07DX002 (ip), vehicle: water",86 % of control
same,T/C,"dose: 25.0 mg/kg/injection, schedule: Q07DX002 (ip), vehicle: water",119 % of control
same,T/C,"dose: 50.0 mg/kg/injection, schedule: Q07DX002 (ip), vehicle: distilled water + Tween-80",99 % of control
same,T/C,"dose: 50.0 mg/kg/injection, schedule: Q07DX002 (ip), vehicle: water",82 % of control
same,T/C,"dose: 100.0 mg/kg/injection, schedule: Q07DX002 (ip), vehicle: distilled water + Tween-80",76 % of control
same,T/C,"dose: 100.0 mg/kg/injection, schedule: Q07DX002 (ip), vehicle: water",101 % of control
same,T/C,"dose: 200.0 mg/kg/injection, schedule: Q07DX002 (ip), vehicle: distilled water + Tween-80",108 % of control
same,T/C,"dose: 200.0 mg/kg/injection, schedule: Q07DX002 (ip), vehicle: water",81 % of control
same,T/C,"dose: 400.0 mg/kg/injection, schedule: Q07DX002 (ip), vehicle: water",81 % of control
O.O.[NH-]C1CCCCC1[NH-].[Pt+2] (stereo not drawn),T/C,"dose: 1.25 mg/kg/injection, schedule: Q07DX002 (ip), vehicle: dextrose",98 % of control
same,T/C,"dose: 10.0 mg/kg/injection, schedule: Q07DX002 (ip), vehicle: dextrose",61 % of control and 62 % of control
same,T/C,"dose: 20.0 mg/kg/injection, schedule: Q07DX002 (ip), vehicle: dextrose",37 % of control and 43 % of control
same,T/C,"dose: 40.0 mg/kg/injection, schedule: Q07DX002 (ip), vehicle: dextrose",20 % of control
C/C=C1\C[C@@H]2C(OC)Nc3cc(O)c(OC)cc3C(=O)N2C1 (stereo partly drawn),T/C,"dose: 0.06 mg/kg/injection, schedule: Q07DX002 (ip), vehicle: saline",121 % of control
same,T/C,"dose: 0.12 mg/kg/injection, schedule: Q07DX002 (ip), vehicle: saline",98 % of control
same,T/C,"dose: 0.12 mg/kg/injection, schedule: Q07DX002 (ip), vehicle: suspension in saline",122 % of control
same,T/C,"dose: 0.25 mg/kg/injection, schedule: Q07DX002 (ip), vehicle: saline",102 % of control
same,T/C,"dose: 0.25 mg/kg/injection, schedule: Q07DX002 (ip), vehicle: suspension in saline",108 % of control
same,T/C,"dose: 0.5 mg/kg/injection, schedule: Q07DX002 (ip), vehicle: saline",102 % of control
same,T/C,"dose: 0.5 mg/kg/injection, schedule: Q07DX002 (ip), vehicle: suspension in saline",166 % of control
same,T/C,"dose: 1.0 mg/kg/injection, schedule: Q07DX002 (ip), vehicle: saline",105 % of control
same,T/C,"dose: 1.0 mg/kg/injection, schedule: Q07DX002 (ip), vehicle: suspension in saline",84 % of control
O=C(O)C1(NO)CCCCC1,T/C,[1],56 % of control
same,T/C,[2],86 % of control and 105 % of control
same,T/C,"dose: 400.0 mg/kg/injection, schedule: Q07DX002 (ip), vehicle: Klucel (hydroxypropylcellulose) (HPC)",118 % of control and 94 % of control
same,T/C,"dose: 800.0 mg/kg/injection, schedule: Q07DX002 (ip), vehicle: Klucel (hydroxypropylcellulose) (HPC)",112 % of control and 103 % of control
Nc1nc(=S)c2ncn(C3CC(O)C(CO)O3)c2[nH]1 (stereo not drawn),T/C,"dose: 4.0 mg/kg/injection, schedule: Q07DX003 (ip), vehicle: saline with Tween-80",63 % of control
same,T/C,"dose: 5.0 mg/kg/injection, schedule: Q07DX003 (ip), vehicle: saline with Tween-80",32 % of control
same,T/C,"dose: 8.0 mg/kg/injection, schedule: Q07DX003 (ip), vehicle: saline with Tween-80",111 % of control
same,T/C,"dose: 10.0 mg/kg/injection, schedule: Q07DX003 (ip), vehicle: saline with Tween-80",22 % of control
same,T/C,"dose: 16.0 mg/kg/injection, schedule: Q07DX003 (ip), vehicle: saline with Tween-80",39 % of control
same,T/C,"dose: 20.0 mg/kg/injection, schedule: Q07DX003 (ip), vehicle: saline with Tween-80",25 % of control
same,T/C,"dose: 32.0 mg/kg/injection, schedule: Q07DX003 (ip), vehicle: saline with Tween-80",89 % of control
same,T/C,"dose: 40.0 mg/kg/injection, schedule: Q07DX003 (ip), vehicle: saline with Tween-80",14 % of control
same,T/C,"dose: 64.0 mg/kg/injection, schedule: Q07DX003 (ip), vehicle: saline with Tween-80",110 % of control
same,T/C,"dose: 80.0 mg/kg/injection, schedule: Q07DX003 (ip), vehicle: saline with Tween-80",4 % of control
same,T/C,"dose: 128.0 mg/kg/injection, schedule: Q07DX003 (ip), vehicle: saline with Tween-80",36 % of control
O=C1c2cccc3cc([N+](=O)[O-])cc(c23)C(=O)N1CCN1CCCC1,T/C,"dose: 3.13 mg/kg/injection, schedule: Q07DX002 (ip), vehicle: saline with Tween-80",107 % of control
same,T/C,"dose: 6.25 mg/kg/injection, schedule: Q07DX002 (ip), vehicle: saline with Tween-80",71 % of control
same,T/C,[3],84 % of control
same,T/C,[4],67 % of control
O=C(O)C1(C(=O)O)CCC1.[NH2-].[NH2-].[Pt+2],T/C,"dose: 6.25 mg/kg/injection, schedule: Q07DX002 (ip), vehicle: dextrose",81 % of control
same,T/C,"dose: 6.25 mg/kg/injection, schedule: Q07DX003 (ip), vehicle: other",53 % of control
same,T/C,"dose: 12.5 mg/kg/injection, schedule: Q07DX003 (ip), vehicle: other",81 % of control
same,T/C,"dose: 25.0 mg/kg/injection, schedule: Q07DX003 (ip), vehicle: dextrose",64 % of control
same,T/C,"dose: 25.0 mg/kg/injection, schedule: Q07DX003 (ip), vehicle: other",74 % of control
same,T/C,"dose: 50.0 mg/kg/injection, schedule: Q07DX003 (ip), vehicle: dextrose",34 % of control
same,T/C,"dose: 50.0 mg/kg/injection, schedule: Q07DX003 (ip), vehicle: other",42 % of control
same,T/C,"dose: 100.0 mg/kg/injection, schedule: Q07DX003 (ip), vehicle: dextrose",25 % of control
same,T/C,"dose: 100.0 mg/kg/injection, schedule: Q07DX003 (ip), vehicle: other",21 % of control
NC(C(=O)O)c1ccc(CBr)cc1 (stereo not drawn),T/C,[3],151 % of control
same,T/C,[4],106 % of control
same,T/C,[5],182 % of control
Nc1ncnc2c1ncn2C1OC(CO)CC1O (stereo not drawn),T/C,"dose: 75.0 mg/kg/injection, schedule: Q07DX002 (ip), vehicle: Klucel (hydroxypropylcellulose) (HPC)",110 % of control
same,T/C,"dose: 150.0 mg/kg/injection, schedule: Q07DX002 (ip), vehicle: Klucel (hydroxypropylcellulose) (HPC)",88 % of control
same,T/C,"dose: 300.0 mg/kg/injection, schedule: Q07DX002 (ip), vehicle: Klucel (hydroxypropylcellulose) (HPC)",54 % of control
COc1ccc(Cl)[n+]([O-])n1,T/C,"dose: 6.25 mg/kg/injection, schedule: Q07DX002 (ip), vehicle: Klucel (hydroxypropylcellulose) (HPC)",83 % of control
same,T/C,"dose: 12.5 mg/kg/injection, schedule: Q07DX002 (ip), vehicle: Klucel (hydroxypropylcellulose) (HPC)",87 % of control
same,T/C,[1],89 % of control
same,T/C,[2],81 % of control
same,T/C,"dose: 100.0 mg/kg/injection, schedule: Q07DX002 (ip), vehicle: Klucel (hydroxypropylcellulose) (HPC)",90 % of control
O=S(=O)(N=N/C=C1\C=CC=CN1O)c1cccs1,T/C,[3],85 % of control
same,T/C,[4],108 % of control and 98 % of control
same,T/C,[5],92 % of control and 100 % of control
same,T/C,"dose: 100.0 mg/kg/injection, schedule: Q07DX002 (ip), vehicle: saline with Tween-80",84 % of control and 99 % of control
same,T/C,"dose: 400.0 mg/kg/injection, schedule: Q07DX002 (ip), vehicle: saline with Tween-80",67 % of control
CNc1nc(N(C)C)nc(N(C)C)n1,T/C,"dose: 3.12 mg/kg/injection, schedule: Q07DX003 (ip), vehicle: saline",114 % of control
same,T/C,"dose: 6.25 mg/kg/injection, schedule: Q07DX003 (ip), vehicle: saline",95 % of control
same,T/C,"dose: 6.25 mg/kg/injection, schedule: Q07DX003 (ip), vehicle: water",89 % of control
same,T/C,"dose: 12.5 mg/kg/injection, schedule: Q07DX003 (ip), vehicle: saline",121 % of control
same,T/C,"dose: 12.5 mg/kg/injection, schedule: Q07DX003 (ip), vehicle: water",104 % of control
same,T/C,"dose: 25.0 mg/kg/injection, schedule: Q07DX003 (ip), vehicle: saline",121 % of control
same,T/C,"dose: 25.0 mg/kg/injection, schedule: Q07DX003 (ip), vehicle: water",61 % of control
same,T/C,"dose: 50.0 mg/kg/injection, schedule: Q07DX003 (ip), vehicle: saline",114 % of control
same,T/C,"dose: 50.0 mg/kg/injection, schedule: Q07DX003 (ip), vehicle: water",158 % of control
same,T/C,"dose: 100.0 mg/kg/injection, schedule: Q07DX003 (ip), vehicle: water",108 % of control
same,T/C,"dose: 200.0 mg/kg/injection, schedule: Q07DX003 (ip), vehicle: saline",32 % of control
same,T/C,"dose: 200.0 mg/kg/injection, schedule: Q07DX003 (ip), vehicle: water",22 % of control
